Source: PubChem BioAssay AID179 (DTP/NCI, 2004)
Several values for one entry are separate records, joined by “and”; a condition that tells them apart may be missing. Identical values can stand only once. Activity calls are given as the source filed them.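 How the source made its calls: active means compounds giving half or more protection of infected cells from virus-caused growth loss, again on retest; inactive means the rest.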

Test system: CEM cells HIV-1 protection, formazan growth assay
Test: NCI AIDS Antiviral Assay
Conditions: for IC50: measured here: growth of uninfected CEM cells
Method in brief: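 Category rules: moderately active means at least 50% protection on retest, and confirmed active means 100% protection reproducibly. The underlying data came from a formazan growth assay in HIV-1-infected CEM cells.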

## CN(C)c1nn2c(-c3ccccc3)nnc2o1
  EC50: > 200 µM
  IC50: > 200 µM

## Cc1nc2ccccc2c(C)[n+]1[O-]
  EC50: > 200 µM
  IC50: > 200 µM

## C1CN(C23OC4(N5CCOCC5)C5C6CC(C7C6C4C72)C53)CCO1 (stereo unspecified)
  EC50: > 200 µM
  IC50: > 200 µM

## O=c1c2ccccc2nc(-c2cccc(Cl)c2)n1NCC1(O)OCC(O)C(O)C1O (stereo unspecified)
  outcome: inactive

## O=C(c1ccccc1)c1cn(/N=C\c2ccccc2)c(=O)nc1-c1ccccc1
  outcome: inactive

## C1=CNc2ccccc2N=C1
  EC50: > 200 µM
  IC50: > 200 µM

## CCc1ccc(Nc2ccc([N+](=O)[O-])cc2[N+](=O)[O-])cc1
  outcome: inactive

## CCO[C@H]1OC(=O)[C@@H]2C(c3ccc(F)cc3)=NO[C@H]12
  EC50: > 135 µM
  IC50: > 135 µM

## COC(=O)N[C@H](C(=O)NC(OCc1ccccc1)C1COC(C)(C)O1)C(C)O[Si](C)(C)C(C)(C)C (stereo partly specified)
  EC50: > 70.8 µM
  IC50: > 70.8 µM

## CSc1nc(-c2ccccc2)[nH]c(=O)n1
  EC50: > 200 µM
  IC50: > 200 µM

## CC(=O)NC(CCCN(Cc1ccccc1)C(=O)N(CCCl)N=O)C(=O)NCc1ccccc1 (stereo unspecified)
  EC50: > 74.1 µM
  IC50: 45.7 µM

## COc1cc([N+](=O)[O-])ccc1N1C(=O)C2c3[nH]c4ccccc4c3C3CCC(C(C)(C)C)CC3C2C1=O (stereo unspecified)
  EC50: > 200 µM
  IC50: 138 µM

## CC(=O)Nc1cc(N=Nc2ccc(N=Nc3ccc(NC(=O)c4ccc(N)cc4)cc3C)cc2C)c(S(=O)(=O)O)cc1N=Nc1cccc(C(=O)O)c1
  EC50: 20.9 µM
  IC50: 170 µM

## CO[C@H](C(=O)[C@@H](O)[C@@H](C)O)[C@@H]1Cc2cc3cc(OC4CC(OC5CC(O)C(O)C(C)O5)C(O)C(C)O4)c(C)c(O)c3c(O)c2C(=O)[C@H]1OC1CC(OC2CC(OC3CC(C)(O)C(O)C(C)O3)C(O)C(C)O2)C(O)C(C)O1 (stereo partly specified)
  EC50: > 0.0302 µM
  IC50: > 0.0302 µM

## CCOc1ccccc1N=NC1C(=O)N(C(=O)CC(=O)Nc2ccccc2OC)N=C1C (stereo unspecified)
  EC50: > 200 µM
  IC50: > 200 µM

## CCCCCCCCCCCCC(Br)C(=O)OCC1OC(n2cc(C)c(=O)[nH]c2=O)CC1O (stereo unspecified)
  EC50: > 200 µM

## Cc1cc2c(C(C)C)c(O)c(O)c(C=Nc3ccc4ccccc4c3)c2c(O)c1-c1c(C)cc2c(C(C)C)c(O)c(O)c(C=Nc3ccc4ccccc4c3)c2c1O
  EC50: 10.7 µM
  IC50: 22.9 µM

## OCC1OC(n2cnc3c(SSc4ncnc5c4ncn5C4OC(CO)C(O)C4O)ncnc32)C(O)C1O (stereo unspecified)
  EC50: > 200 µM
  IC50: > 200 µM

## COc1cc2c3c(c1)SC(C)C(=O)N3CCN2 (stereo unspecified)
  EC50: > 200 µM
  IC50: 105 µM

## CC(=O)Nc1ccc(S(=O)(=O)N/N=C/C(=O)O)cc1
  EC50: > 200 µM
  IC50: > 200 µM

## Cc1cccc2c(N)c3cccc(C(=O)NCCN(C)C)c3nc12
  EC50: > 200 µM
  IC50: 0.0631 µM

## CC[C@@H]1CC[C@@H]2[C@H](CC[C@]3(C)[C@@H](O[N+](=O)[O-])CC[C@@H]23)[C@H]1C(C)=O
  outcome: inactive

## COc1cc(C=O)c(-c2cc(OC)c(OC)cc2C=O)cc1OC
  EC50: > 44.7 µM
  IC50: > 44.7 µM

## COc1ccc2c(c1)[n+]([O-])c(S(=O)(=O)c1ccc(C)cc1)c(N)[n+]2[O-]
  outcome: inactive

## CCCc1c(O)nc(Nc2nc3ccccc3[nH]2)[nH]c1=O
  EC50: > 200 µM
  IC50: 63.1 µM

## C=C(NC(=O)C(=C)NC(=O)c1ccc2c(n1)-c1coc(n1)C(=C)NC(=O)C(=C)NC(=O)c1nc(oc1C)C(=C)NC(=O)C(C(C)(C)O)NC(=O)C(=C)NC(=O)c1coc(n1)/C(=C/C)NC(=O)[C@H]([C@@H](C)O)NC(=O)c1csc-2n1)C(N)=O (stereo partly specified)
  EC50: > 100 µM
  IC50: > 100 µM

## Fc1ccc(CSc2cnnc(SCc3ccc(F)cc3)c2SCc2ccc(F)cc2)cc1
  EC50: > 200 µM
  IC50: 39.8 µM

## CC(=O)O[C@]1(C(C)=O)CC[C@H]2[C@@H]3C=C(Cl)C4=CC(=O)[C@@H]5C[C@@H]5[C@]4(C)[C@H]3CC[C@@]21C
  EC50: > 200 µM
  IC50: > 200 µM

## O=[N+]([O-])c1cccc2c(N3CC3)cnnc12
  outcome: inactive

## C/C=C(C)/C=C/CC(C)CCC=C(C)C (stereo unspecified)
  EC50: > 200 µM
  IC50: 85.1 µM

## O=C1NC(=O)/C(=C/c2ccc(S(=O)(=O)N/N=C\C(O)C(O)C(O)CO)cc2)N1 (stereo unspecified)
  EC50: > 200 µM
  IC50: 135 µM and 191 µM

## CC(C)=CCN1Cc2cc(Cl)cc3[nH]c(=S)n(c23)CC1C (stereo unspecified)
  outcome: active
  IC50: 26.9 µM

## COc1ccc(C2=CC3CCC2C3)cc1 (stereo unspecified)
  outcome: inactive

## CC(=O)C(C)(CCC(=O)O)CCC(=O)O
  EC50: > 955 µM
  IC50: > 955 µM

## COc1ccc(N2C(=O)C3CC(c4ccc(Br)cc4)c4c([nH]c5ccccc45)C3C2=O)cc1 (stereo unspecified)
  EC50: > 14.5 µM
  IC50: 11 µM

## COC(=O)CSc1nnc(CSc2ccc(Cl)cc2)n1-c1ccccc1
  EC50: > 200 µM
  IC50: 105 µM

## CCOC(=O)C(CSSCC(NC(C)=O)C(=O)OCC)NC(C)=O (stereo unspecified)
  EC50: 81.3 µM
  IC50: 141 µM

## Cn1c(SCc2ccc([N+](=O)[O-])cc2)nnc1C12CC3CC(CC(C3)C1)C2
  EC50: > 200 µM
  IC50: 110 µM

## CC(=O)OC[C@]12[C@H](OC(C)=O)[C@H](OC(C)=O)[C@@H]3C(OC(C)=O)[C@@]14OC3(C)COC(=O)c1cccnc1CCC(C)C(=O)OC([C@H]4C)[C@H](O)[C@@H]2OC(=O)c1ccccc1 (stereo partly specified)
  outcome: inactive

## Cc1ccc([N+](=O)[O-])c2c(NCCC[N+](C)(C)[O-])ccnc12
  EC50: > 200 µM
  IC50: 28.8 µM

## COc1ccc([N+](=O)[O-])c2c(NCC(O)CO)ccnc12 (stereo unspecified)
  EC50: > 200 µM
  IC50: 29.5 µM

## CN=c1nc2n3c(cccc3n1)NC(C)=N2
  EC50: > 100 µM
  IC50: > 100 µM

## O=C(Cn1ccnc1[N+](=O)[O-])NCCO
  outcome: inactive

## CSC1=N[C@H](c2ccccc2)CS1
  EC50: > 200 µM
  IC50: > 200 µM

## COC12C(COC(=O)NCCO)C3=C(C(=O)C(C)=C(N)C3=O)N1CC1NC12 (stereo unspecified)
  EC50: > 331 µM
  IC50: 1.15 µM

## O=C1c2cc([N+](=O)[O-])cnc2S(=O)(=O)N1c1ccc(Oc2ccccc2)cc1
  EC50: > 200 µM
  IC50: 105 µM

## O=[N+]([O-])C1=Cc2cc(Cl)ccc2OC1c1cccc2ccccc12 (stereo unspecified)
  EC50: > 2 µM
  IC50: 0.977 µM

## CC1(C)CN=C(Nc2ccc(F)cc2)S1
  EC50: > 200 µM
  IC50: > 200 µM

## c1cc(CSP234N5CCN2CCN3CCN4CC5)ccc1CSP123N4CCN1CCN2CCN3CC4
  EC50: > 100 µM
  IC50: 36.3 µM

## O=C1C[C@@H]2OC3=C(C(=O)CCC3)[C@@H]2O1
  EC50: > 1290 µM
  IC50: 7.24 µM

## COc1cc2c(cc1O)C1C(O2)c2cc3c(cc2OC1(C)C)OC(C)(C)CC3 (stereo unspecified)
  EC50: > 200 µM
  IC50: 28.8 µM

## O=C1c2cc(O)c(O)cc2O[C@H](c2ccc(O)c(O)c2)[C@H]1O
  EC50: > 200 µM
  IC50: 170 µM

## COc1cc2ccc3c4cc(OC)c(OC)cc4c[n+](C)c3c2cc1O
  outcome: inactive

## CC12CC3(O)OC(O1)C1(COC(=O)c4ccccc4)C3C[C@@]21OC1OC(COC(=O)c2cc(O)c(O)c(O)c2)C(O)C(O)C1O (stereo partly specified)
  outcome: inactive

## CCC1(CC)COP(=S)(SCCOC(=O)c2ccccc2)OC1
  EC50: > 200 µM
  IC50: 46.8 µM

## O=Cc1cc([N+](=O)[O-])no1
  outcome: inactive

## CCNC(=O)C(O)C1(O)CCC2[C@@H]3CCC4=CC(=O)C=C[C@]4(C)C3[C@@H](O)C[C@@]21C (stereo partly specified)
  outcome: inactive

## CN(NC(=O)c1ccco1)C1=NCCN1
  EC50: > 200 µM
  IC50: > 200 µM

## NCCSSSSCCN
  EC50: > 132 µM
  IC50: 34.7 µM

## COc1ccc(C(=O)C(c2ccc(OC)cc2)C2(O)C(=O)Nc3ccc([N+](=O)[O-])cc32)cc1 (stereo unspecified)
  EC50: > 79.4 µM
  IC50: > 79.4 µM

## CCC[C@H]1C(=O)N=C(N)N1C(=O)OCc1ccccc1
  EC50: > 200 µM
  IC50: > 200 µM

## N=c1nc(-c2ccccc2)nc2[nH]c3c4cccc5cccc(c3nc12)c54
  EC50: > 200 µM
  IC50: 67.6 µM

## CSC(=Nc1cc2ccccc2c2ccccc12)NC#N
  EC50: > 34.7 µM
  IC50: 26.9 µM

## CC(=O)C1CC2(c3ccccc3)C(=O)c3ccccc3N2O1 (stereo unspecified)
  EC50: > 447 µM
  IC50: 195 µM

## Cn1c(-c2ccc(/C=N/NC(N)=NCCCCCCN=C(N)N/N=C/c3ccc(-c4c[n+]5ccccc5n4C)cc3)cc2)c[n+]2ccccc12
  EC50: 2.24 µM
  IC50: 30.2 µM

## CC1C(=NO)C(C)C(c2ccccc2)N(N=O)C1c1ccccc1 (stereo unspecified)
  EC50: > 200 µM
  IC50: > 200 µM

## [O-][n+]1onc2c3nn(-c4ccccc4)nc3ccc21
  EC50: > 200 µM
  IC50: 12 µM

## C[CH2][Sn]1([CH2]C)[O]C(=O)[O][Sn]([CH2]C)([CH2]C)[O]1
  EC50: > 8.32 µM
  IC50: 2.24 µM

## OCc1c[te]c(-c2ccccc2)c1
  outcome: inactive

## CN(Cc1cnc2nc(N)nc(N)c2n1)c1ccc(C(=O)NC(CCC(=O)NC(P(=O)(O)O)P(=O)(O)O)C(=O)O)cc1 (stereo unspecified)
  EC50: > 200 µM
  IC50: 11.2 µM

## COC(=O)CC[N+]1=CCC(c2ccccc2)(c2ccccc2)O1
  EC50: > 115 µM
  IC50: 69.2 µM

## CCc1cccc(C)c1NC(=O)C(=O)Cc1nc2ccccc2o1
  EC50: > 22.4 µM
  IC50: > 22.4 µM

## CCOC(=O)CCN1C(=O)c2c(NC(=O)C(=O)O)cccc2S1(=O)=O
  EC50: > 200 µM
  IC50: > 200 µM

## CCC1CC2CN3CCc4c([nH]c5ccccc45)C(C(=O)OC)(C2)C13 (stereo unspecified)
  outcome: inactive

## Nc1nc(N)c2cc(Cl)ccc2n1
  EC50: > 1290 µM
  IC50: 26.9 µM

## CCSc1[nH]c(NC(=S)NC(=O)c2ccccc2Cl)c(C(N)=O)c1C(N)=O
  EC50: > 200 µM
  IC50: 110 µM

## O=S(=O)(O)c1cc(O)c2ccc3c(S(=O)(=O)O)cc(S(=O)(=O)O)c4ccc1c2c34
  outcome: inactive

## C[C@H](N[C@H]1CCC[C@]1(O)C#Cc1ccc2c(c1)OCO2)c1ccccc1
  EC50: > 50.1 µM
  IC50: 28.8 µM

## O=C(CNc1ccccc1[N+](=O)[O-])Nn1cnc2ccc(S(=O)(=O)Nc3ccccc3[N+](=O)[O-])cc2c1=O
  EC50: > 200 µM
  IC50: > 200 µM

## O=C(O)CCc1nc(-c2ccccc2)c(-c2ccccc2)o1
  EC50: > 200 µM
  IC50: > 200 µM

## COC1=C(C)C2CC(=O)OC3CC4C(C)CC(OC(C)=O)C(=O)[C@]4(C)C(C1=O)[C@@]32C (stereo partly specified)
  outcome: inactive

## O=c1c2cc3c(cc2c2cccc4c2n1CCC4)OCO3
  outcome: inactive

## Nc1ccc2cc(S(=O)(=O)O)c(N=Nc3ccc(-c4ccc(N=Nc5c(S(=O)(=O)O)cc6cc(S(=O)(=O)O)cc(N)c6c5O)cc4)cc3)c(O)c2c1
  outcome: inactive
